Some test systems named below: MCF7 breast; SNB-75 CNS; RXF 393 renal; A498 renal; SR leukemia; 786-0 renal; BT-549 breast; SNB-78 CNS; DMS 114 small cell lung; KM20L2 colon; DMS 273 small cell lung; M19-MEL melanoma; DLD-1 colon; HOP-18 NSCLC; LXFL 529 NSCLC.
Holding throughout (experiment): inhibition of tumour cell growth, NCI panel, 48 h

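96-well plates; 48 h exposure; 5 concentrations. Endpoints by linear interpolation between flanking doses. Not reached: highest tested concentration assigned. GI50 marks 50% less growth. TGI is the concentration that stops growth completely.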 A value given as a limit tells only on which side of the number the result lay.

As to `Cn1c(Sc2ccc(-c3cccnc3)n2C)ccc1-c1cccnc1`, the TGI came to 45.3 µM in the assay with MCF7 breast; 46.9 µM in the assay with SNB-75 CNS; 36.3 µM in the assay with RXF 393 renal; 47.6 µM in the assay on A498 renal; 9.79 µM in the assay on SR leukemia; 43.5 µM in the assay with 786-0 renal. Further, the TGI in the assay on BT-549 breast stood at 49.8 µM.
In the case of `NNc1ccccc1Cl`, the TGI in the assay with MCF7 breast, in the assay on SNB-75 CNS, with RXF 393 renal, with A498 renal, in the assay with 786-0 renal and with BT-549 breast was greater than 100 µM throughout.
`Nc1nnc(N)n1NC(=O)C(=O)Nc1ccc([N+](=O)[O-])cc1`: the TGI in the assay with SNB-75 CNS, with SNB-78 CNS, with DMS 114 small cell lung, with KM20L2 colon, in the assay on RXF 393 renal and in the assay on DMS 273 small cell lung was greater than 100 µM each time. Further, the TGI in the assay on M19-MEL melanoma, in the assay on DLD-1 colon, with A498 renal, in the assay with HOP-18 NSCLC and in the assay on SR leukemia was greater than 100 µM each time.
With `COc1cc(S(=O)(=O)Nc2nc(-c3ccc(N)cc3)cs2)ccc1Cl`, the TGI in the assay with MCF7 breast, in the assay on SNB-75 CNS, in the assay on RXF 393 renal, in the assay on A498 renal, with SR leukemia and in the assay with 786-0 renal was greater than 100 µM in each case. Besides, the TGI in the assay with BT-549 breast was greater than 100 µM.
`COc1cc(O)c2c(c1)C(=O)c1cc(C)cc(O)c1C2=O`: the TGI with LXFL 529 NSCLC, in the assay with SNB-75 CNS, in the assay with SNB-78 CNS, with DMS 114 small cell lung, with KM20L2 colon and in the assay with M19-MEL melanoma was greater than 100 µM in each case. The TGI with DLD-1 colon, in the assay on A498 renal, in the assay on HOP-18 NSCLC and with SR leukemia was greater than 100 µM throughout.
Regarding `Cc1cc(=O)oc2c1cc(OCC(=O)OCCN1CCCCC1)c1occ(C)c12`, the TGI with LXFL 529 NSCLC, in the assay on SNB-75 CNS, in the assay on SNB-78 CNS, in the assay on DMS 114 small cell lung, in the assay with KM20L2 colon and in the assay on RXF 393 renal was greater than 100 µM each time. Besides, the TGI in the assay with DMS 273 small cell lung, in the assay with M19-MEL melanoma, with DLD-1 colon, in the assay on A498 renal, in the assay on HOP-18 NSCLC and with 786-0 renal was greater than 100 µM throughout.
For `CO[C@@H]1C=C[C@@]23c4cc5c(cc4C(O)N(CC2O)C3C1)OCO5` (stereo partly drawn), the TGI in the assay on MCF7 breast was 8.64 µM; with SNB-75 CNS it was 6.92 µM; with RXF 393 renal, 50.3 µM; in the assay with A498 renal, 7.68 µM; in the assay on SR leukemia, greater than 100 µM; with 786-0 renal, 22.6 µM. The same molecule showed a TGI with BT-549 breast of 20.5 µM.
Consider `COc1ccc(CC2c3cc(OC)c(OC)c(OC)c3CC[N+]2(C)C)cc1Oc1ccc(CC2c3cc4c(c(OC)c3CCN2C)OCO4)cc1` (stereo not drawn), for which the TGI with MCF7 breast, in the assay on SNB-75 CNS, in the assay on RXF 393 renal, with A498 renal, in the assay on SR leukemia and in the assay on 786-0 renal was greater than 100 µM in each case. In addition, the TGI in the assay on BT-549 breast is greater than 100 µM.
For `CC(C)=CCC[C@](C)(O[C@@H]1O[C@H](CO)[C@@H](O)[C@H](O)[C@H]1O)[C@H]1CC[C@]2(C)[C@@H]1[C@H](O)C[C@@H]1[C@@]3(C)CC[C@H](O)C(C)(C)[C@@H]3[C@@H](O[C@@H]3O[C@H](CO)[C@@H](O)[C@H](O)[C@H]3O)C[C@]12C`, the TGI in the assay with MCF7 breast, in the assay with SNB-75 CNS, in the assay on RXF 393 renal, in the assay with A498 renal, in the assay with SR leukemia and in the assay with 786-0 renal was greater than 100 µM each time. Further, in the assay with BT-549 breast, the TGI is greater than 100 µM.
For `O=C1C[C@@H](Sc2ccccc2)C2(OCCO2)[C@H]2ON3CCC[C@@H]3[C@@H]12`, the TGI in the assay on MCF7 breast is 17.2 µM; in the assay with A498 renal it was 30.5 µM; in the assay on SR leukemia it was 10.4 µM; with 786-0 renal it was 4.83 µM; with BT-549 breast, 18.9 µM.
For the molecule `Fc1ccc(-c2nnc3sc(COc4ccccc4Cl)nn23)cc1Cl`, the GI50 in the assay on SNB-75 CNS was 47.3 µM; in the assay with RXF 393 renal, 38.1 µM; in the assay with A498 renal it was 34.6 µM; with SR leukemia, 23.3 µM; in the assay with BT-549 breast, 22.9 µM. Also, the TGI with SNB-75 CNS is greater than 100 µM; in the assay with RXF 393 renal, 69.2 µM; in the assay on A498 renal it was 93.6 µM; in the assay on SR leukemia it was 76.4 µM; in the assay with BT-549 breast it was 64.4 µM.
In the case of `O=C(O)C1=NNC(C(=O)O)=NN1`, the TGI with LXFL 529 NSCLC, in the assay on SNB-75 CNS, in the assay with SNB-78 CNS, in the assay on KM20L2 colon, in the assay on RXF 393 renal and in the assay on DMS 273 small cell lung was greater than 100 µM throughout. Besides, the TGI with M19-MEL melanoma, in the assay on DLD-1 colon, in the assay on HOP-18 NSCLC and with 786-0 renal was greater than 100 µM in each case.
With `COc1ccc([C@H]2C=C(c3cc(F)c(Cl)cc3Cl)NC(=S)N2)cc1`, the TGI in the assay with MCF7 breast is greater than 100 µM; in the assay with SNB-75 CNS, 66.5 µM; in the assay with RXF 393 renal, 79.9 µM; in the assay with A498 renal it was 79.2 µM; in the assay with SR leukemia, greater than 100 µM; in the assay on 786-0 renal it was greater than 100 µM. Further, in the assay with BT-549 breast, the TGI is greater than 100 µM.
`NC(=O)Nc1cc(O)ccc1N=Nc1ccc(S(=O)(=O)Nc2ccccn2)cc1`: the TGI with LXFL 529 NSCLC, in the assay on SNB-75 CNS, in the assay on SNB-78 CNS, in the assay with DMS 114 small cell lung, in the assay on KM20L2 colon and in the assay on DMS 273 small cell lung was greater than 100 µM in each case. For the same molecule, the TGI in the assay on M19-MEL melanoma, with A498 renal and in the assay on HOP-18 NSCLC was greater than 100 µM each time.
For the molecule `Cc1cc(N(CCCCl)CCCCl)ccc1C=Nc1cccc(Cl)c1`, the TGI was 49.9 µM in the assay on MCF7 breast; 24.7 µM in the assay with SNB-75 CNS; 35.5 µM in the assay with RXF 393 renal; 24 µM in the assay on SR leukemia; 43.2 µM with 786-0 renal.
Take `O=c1cc(O)c2ccccc2o1`: the TGI in the assay on MCF7 breast, in the assay with SNB-75 CNS, in the assay on RXF 393 renal, in the assay on A498 renal, in the assay on SR leukemia and in the assay with 786-0 renal was greater than 100 µM in each case. The TGI in the assay with BT-549 breast was greater than 100 µM.
Consider `CCCCCCCCCCCCCCCCOCC(COP(=O)([O-])OCC[n+]1ccc(N(C)C)cc1)OCC` (stereo not drawn), for which the TGI stood at 36.1 µM in the assay with MCF7 breast; 18.8 µM with SNB-75 CNS; 31.7 µM with RXF 393 renal; 23.9 µM in the assay on SR leukemia; 34.2 µM in the assay with 786-0 renal; 20.2 µM with BT-549 breast.
As for `CC[C@H](C)C1=C(O)[N@+]2([O-])Oc3ccc(-c4c(O)c(O)c(-c5ccc(OC(C)=O)cc5)c(OC(C)=O)c4OC(C)=O)cc3O[C@]2([C@@H](C)CC)C(=O)N1O`, the TGI in the assay with MCF7 breast was greater than 50 µM; in the assay with RXF 393 renal it was greater than 50 µM; in the assay on A498 renal, greater than 50 µM; with SR leukemia, 33 µM; with 786-0 renal, greater than 50 µM; in the assay with BT-549 breast, greater than 50 µM.
Take `Nc1ccc(Nc2c3ccccc3nc3ccccc23)cc1`: the TGI in the assay with MCF7 breast, with RXF 393 renal, in the assay on SR leukemia, with 786-0 renal and in the assay with BT-549 breast was greater than 10 µM throughout.
Take `COc1cc(C)c2c(=O)c3c(oc2c1)C(=O)c1c(O)c(OC)cc(O)c1C3=O`: the TGI in the assay with MCF7 breast came to 9.34 µM; with SNB-75 CNS it was 3.84 µM; in the assay on SNB-78 CNS it was 7.2 µM; with DMS 114 small cell lung, 1.72 µM; with KM20L2 colon it was 19.9 µM; in the assay with RXF 393 renal it was 2.71 µM. Further, the TGI with DMS 273 small cell lung came out at 1.8 µM; in the assay with M19-MEL melanoma, 4.04 µM; in the assay on DLD-1 colon it was 10.1 µM; in the assay on A498 renal, 5.54 µM; with HOP-18 NSCLC, 3.9 µM.
Consider `COc1ccc(OC)c(C#Cc2ccc(OC)c(C(=O)NCCc3ccc(F)cc3)c2)c1`, for which the TGI with MCF7 breast, in the assay on A498 renal, with SR leukemia, in the assay on 786-0 renal and in the assay with BT-549 breast was greater than 100 µM throughout.
In the case of `O=C1c2ccccc2C(=O)c2c1ccc(C(=O)O)c2-c1ccc2ccccc2c1`, the TGI in the assay on MCF7 breast was 81.8 µM; with A498 renal it was 85.5 µM; in the assay on SR leukemia, 51.6 µM; in the assay with 786-0 renal it was greater than 100 µM; in the assay on BT-549 breast it was 68.3 µM.
`COc1c(Cl)cc(S(=O)O)cc1Cl`: the TGI with LXFL 529 NSCLC, in the assay with SNB-75 CNS, in the assay on SNB-78 CNS, in the assay with DMS 114 small cell lung, with RXF 393 renal and in the assay on M19-MEL melanoma was greater than 100 µM in each case. Also, the TGI in the assay on DLD-1 colon and with A498 renal was greater than 100 µM throughout.
As to `CC1(O)CC23CC1CCC2(C)C12CCCC(C)(C(=O)O1)C2CC3O` (stereo not drawn), the TGI with MCF7 breast, in the assay on SNB-75 CNS, with A498 renal, with SR leukemia, in the assay on 786-0 renal and with BT-549 breast was greater than 100 µM each time.
Regarding `O=C(Nc1nnc(-c2c(Cl)c(Cl)c(Cl)c(Cl)c2-c2nc3cc(C(=O)c4ccccc4)ccc3[nH]2)o1)c1ccccc1`, the TGI with MCF7 breast was found to be 36.5 µM; in the assay on SNB-75 CNS, 41.4 µM; in the assay on RXF 393 renal it was 39.1 µM; with A498 renal, 49.6 µM; in the assay with SR leukemia, 20.9 µM; in the assay with 786-0 renal it was 30.5 µM. In addition, the TGI in the assay with BT-549 breast amounted to 73.4 µM.
With `C[C@]12CC[C@H](O)C=C1CC[C@@H]1[C@@H]2CC[C@]2(C)C(=N/O)/C(=C/c3ccncc3)C[C@@H]12`, the TGI amounted to 16.7 µM in the assay with MCF7 breast; 43.8 µM in the assay on SNB-75 CNS; 26.3 µM in the assay on RXF 393 renal; 16.2 µM with SR leukemia; 25.5 µM with 786-0 renal; 81.5 µM in the assay on BT-549 breast.
Consider `Cc1c2cccc-2ccc2c1[nH]c1ccc(Br)cc12`, for which the TGI in the assay on MCF7 breast is 19.8 µM; in the assay with SNB-75 CNS, 7.89 µM; with A498 renal it was 37.9 µM; in the assay with SR leukemia, greater than 100 µM; with 786-0 renal, 27.5 µM; in the assay with BT-549 breast, 20.7 µM.

Source of the values: PubChem BioAssay (NCI).
